Experimental findings from ChEMBL document CHEMBL1125257, “Dihydropyrimidine calcium channel blockers. 3. 3-Carbamoyl-4-aryl-1,2,3,4-tetrahydro-6-methyl-5-pyrimidinecarboxylic acid esters as orally effective antihypertensive agents” (J Med Chem, 1991) are described below.

The experiment deals with Rattus norvegicus. As to the kind of experiment: Antihypertensive activity when administered orally to spontaneously hypertensive rats. The class given is functional, organism-based.

Molecules are shown by their SMILES.

For `CCOC(=O)C1=C(COCCN)NC(C)=C(C(=O)OC)C1c1ccccc1Cl` (configuration not stated) [AMLODIPINE], half-maximal inhibition (IC50) was put at 2.5 nM.

Turning to `COC(=O)C1=C(C)NC(C)=C(C(=O)OC)C1c1ccccc1[N+](=O)[O-]` [NIFEDIPINE], the IC50 was 2.5 nM.
